The source of these data is patent US11471502B2, “Neuroprotective peptide” (UNIVERSITY COLLEGE CARDIFF C[…], priority 2017, dated 2022).

Series [1] has as its system phospho-p44/p42 MAP kinase (Thr202/Tyr204). The series can be described thus: In vivo time course and dose response of ERK activation in dorsal striatum. More on the design: species or system mouse. The conditions noted are these: dorsal striatum. On the procedure:
(§1) Mice injected with RB5 were perfused at different time points, whereas scramble-injected mice were perfused after 1 hour. Immunohistochemical analysis was carried out against phospho-p44/p42 MAP kinase (Thr202/Tyr204). […] One-way ANOVA F5,29=9.137, p<0.0001. Bonferroni's post-hoc test, SCR vs RB5 1 h: p<0.001, SCR vs RB5 6 h: p<0.001. […] Immunohistochemical analysis was carried out against phospho-p44/p42 MAP kinase (Thr202/Tyr204). […] One-way ANOVA: F5,29=7.097, p<0.001. Bonferroni's post-hoc test, SCR vs RB5 20 mg/kg: p<0.05, SCR vs RB5 10 mg/kg: p<0.01. Data are expressed as Mean±SEM. c) RB5 brain levels measured with mass spectrometry at different hours after a single i.p. administration of 20 mg/kg. High levels of RB5 were detected up to 6 hrs (one-way ANOVA, F4,18=17.469, P<0.0001, Bonferroni's post-hoc, SCR vs RB5 1 h P<0.01, SCR vs RB5 3 h P<0.0001, SCR vs RB5 6 h P<0.05). […] White star P<0.0001, P<0.001, P<0.01, P<0.05.
(§2) 1 h after CPP-RB5/CPP-SCR (20 mg/kg, i.p.) mice were anaesthetized and perfused via intracardiac infusion of ice-cold 4% PFA. Brains were rapidly extracted, post-fixed overnight and transferred to 25% buffered sucrose for 24 h. Coronal sections were cut at 30 μm thickness on a freezing microtome and stored in a cryoprotective solution at −20° C. until they were processed for immunohistochemistry. Free-floating sections were incubated with primary antibodies against anti-phospho-p44/42 MAP kinase (Thr202/Tyr204), anti-phospho-Elk-1 (Ser383), anti-phospho-Kv4.2 (Thr607)-R, anti-phospho-MSK-1, anti-phospho-MEK-1, c-Fos and Tyrosine Hydroxylase overnight at 4° C. Sections were then incubated with biotinylated goat anti-rabbit IgG (1:200, Vector Labs) for 2 h. Detection of the bound antibodies was carried out using a standard peroxidase-based method (ABC-kit, Vectastain, Vector Labs), followed by a DAB and H2O2 solution. Quantification of positive neurons were counted from striatum in 2-3 sections per mouse, bilaterally. Sample areas were visualized under a 20× objective in a Leica DM IRB microscope by a blind investigator to condition and counts per region were averaged across the sections using the ImageJ software.

Test in series [2]: as above
Further details: species or system mouse. The settings on record: mouse, in vivo, ip; 20 mg/kg i.p.; read-out: estimated half-life (of RB5 activity on pERK in brain) (converted). On the procedure:
as §1, §2

Entries after “also recorded” stand apart in the source; their conditions may differ.

Consider `CSCC[C@H](NC(=O)[C@H](CCC(=O)O)NC(=O)[C@@H](NC(=O)[C@H](CCC(=O)O)NC(=O)CNC(=O)[C@@H]1CCCN1C(=O)[C@@H](NC(=O)CNC(=O)[C@@H]1CCCN1C(=O)CNC(=O)[C@@H](NC(=O)CNC(=O)[C@H](CCC(=O)O)NC(=O)[C@@H](NC(=O)[C@H](CCCNC(=N)N)NC(=O)[C@H](CCCNC(=N)N)NC(=O)[C@@H]1CCCN1C(=O)[C@H](CCC(=O)O)NC(=O)CNC(=O)CNC(=O)CNC(=O)CNC(=O)CNC(=O)[C@H](CCC(N)=O)NC(=O)[C@@H]1CCCN1C(=O)[C@@H]1CCCN1C(=O)[C@H](CCCNC(=N)N)NC(=O)[C@H](CCCNC(=N)N)NC(=O)[C@H](CCCNC(=N)N)NC(=O)[C@H](CCC(N)=O)NC(=O)[C@H](CCCNC(=N)N)NC(=O)[C@H](CCCNC(=N)N)NC(=O)[C@H](CCCCN)NC(=O)[C@H](CCCCN)NC(=O)[C@H](CCCNC(=N)N)NC(=O)CNC(C)=O)[C@@H](C)O)C(C)C)C(C)C)C(C)C)C(=O)N[C@H](C(=O)N[C@@H](CCCCN)C(=O)NCC(=O)N[C@@H](CCC(N)=O)C(=O)N1CCC[C@H]1C(=O)N[C@@H](Cc1ccccc1)C(=O)N[C@@H](CC(=O)O)C(=O)N[C@@H](C(=O)O)C(C)C)C(C)C` [RB5], for which, in series [1] (20 mg/kg i.p.), the “time after injection at which phospho-ERK returned to basal levels” value amounted to 12 h and the “time after injection up to which phospho-ERK levels / RB5 activity remained increased” value was “up to 6 h”. For the same molecule, the pERK dose response entry in series [1] (different doses i.p., 1 hour after injection) is “both 20 and 10 mg/kg (i.p.) doses are able to elevate pERK; also recorded: dose-dependent manner”. Further, the half-life in series [2] was 9 h.
